From ChEMBL document CHEMBL3352267, “The design and implementation of a generic lipopeptide scanning platform to enable the identification of 'locally acting' agonists for the apelin receptor” (Bioorg Med Chem Lett, 2014)
Active and inactive are the calls of the source. The calls are words filed in the database; no cut-off is given here. Residues, ends and D or L forms follow the SMILES beside them. *: point of attachment. Palmitoyl = CCCCCCCCCCCCCCCC(=O)*

Assays:
D(1A) dopamine receptor [1] = target: T1, D(1A) dopamine receptor (Homo sapiens, UniProt P21728); test: Antagonist activity at D1A receptor (unknown origin) expressed in CHOK1 cells after 5 mins by HTRF cAMP immunoassay in presence of cAMP/SKF38393; format: functional, cell-based, CHO-K1
[2] = target: T2, 5-hydroxytryptamine receptor 1A (Homo sapiens, UniProt P08908); test: Antagonist activity at 5HT1A receptor (unknown origin) expressed in HeLa cells after 15 mins by calcium flux/FLIPR assay in presence of R-(+)-8-OH-DPAT; format: functional, cell-based
T2 sequence (P08908 whole entry): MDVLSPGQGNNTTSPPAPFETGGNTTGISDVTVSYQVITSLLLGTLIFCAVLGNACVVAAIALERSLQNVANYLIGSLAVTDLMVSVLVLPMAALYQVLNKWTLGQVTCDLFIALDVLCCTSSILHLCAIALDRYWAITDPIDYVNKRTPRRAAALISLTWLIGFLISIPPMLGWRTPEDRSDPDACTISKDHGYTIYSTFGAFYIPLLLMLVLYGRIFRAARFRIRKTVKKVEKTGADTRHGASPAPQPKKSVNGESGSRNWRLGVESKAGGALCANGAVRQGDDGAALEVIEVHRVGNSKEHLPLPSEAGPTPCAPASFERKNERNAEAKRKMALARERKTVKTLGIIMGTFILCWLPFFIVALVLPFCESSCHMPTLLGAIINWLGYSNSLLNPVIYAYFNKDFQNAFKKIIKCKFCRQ

Thromboxane A2 receptor [3] = target: T3, Thromboxane A2 receptor (Homo sapiens, UniProt P21731); test: Antagonist activity at thromboxane A2 receptor (unknown origin) expressed in HEK293-EBNA cells after 15 mins by calcium flux/FLIPR assay in presence of U-46619; format: functional, cell-based
T3 sequence (P21731 whole entry): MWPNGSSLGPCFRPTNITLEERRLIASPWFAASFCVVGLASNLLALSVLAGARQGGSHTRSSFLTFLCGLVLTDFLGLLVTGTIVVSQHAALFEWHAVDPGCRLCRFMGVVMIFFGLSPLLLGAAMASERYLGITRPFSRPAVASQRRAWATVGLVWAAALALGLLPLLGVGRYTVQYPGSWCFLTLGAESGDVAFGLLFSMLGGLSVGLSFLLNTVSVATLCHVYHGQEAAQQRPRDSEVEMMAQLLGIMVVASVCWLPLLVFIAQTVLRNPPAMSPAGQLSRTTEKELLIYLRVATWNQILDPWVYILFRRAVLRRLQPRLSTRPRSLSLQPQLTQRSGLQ

[4] = target: T2, 5-hydroxytryptamine receptor 1A; test: Agonist activity at 5HT1A receptor (unknown origin) expressed in HeLa cells after 3 mins by calcium flux/FLIPR assay; format: functional, cell-based
[5] = target: T4, Muscarinic acetylcholine receptor M2 (Homo sapiens, UniProt P08172); test: Antagonist activity at muscarinic acetylcholine receptor M2 (unknown origin) expressed in CHOK1 cells after 15 mins by calcium flux/FLIPR assay in presence of acetylcholine; format: functional, cell-based, CHO-K1
T4 sequence (P08172 whole entry): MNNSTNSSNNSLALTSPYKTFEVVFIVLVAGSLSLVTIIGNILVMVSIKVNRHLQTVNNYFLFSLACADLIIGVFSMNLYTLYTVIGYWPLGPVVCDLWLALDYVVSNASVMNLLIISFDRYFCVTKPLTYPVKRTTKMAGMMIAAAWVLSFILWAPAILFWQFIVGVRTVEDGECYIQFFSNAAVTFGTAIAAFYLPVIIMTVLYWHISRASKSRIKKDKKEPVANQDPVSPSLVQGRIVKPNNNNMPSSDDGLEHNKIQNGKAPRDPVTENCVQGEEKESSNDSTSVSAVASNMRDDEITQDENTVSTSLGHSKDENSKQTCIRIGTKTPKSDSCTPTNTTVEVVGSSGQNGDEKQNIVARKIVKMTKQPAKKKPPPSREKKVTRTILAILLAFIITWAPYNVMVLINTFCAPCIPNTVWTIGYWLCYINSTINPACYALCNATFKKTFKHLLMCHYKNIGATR

D(1A) dopamine receptor [6] = target: T1, D(1A) dopamine receptor; test: Agonist activity at D1A receptor (unknown origin) expressed in CHOK1 cells by HTRF cAMP immunoassay; format: functional, cell-based, CHO-K1
[7] = target: Beta-2 adrenergic receptor (Homo sapiens, UniProt P07550); test: Agonist activity at beta-2 adrenergic receptor (unknown origin) expressed in CHOK1 cells by HTRF cAMP immunoassay; format: functional, cell-based, CHO-K1
Cannabinoid receptor 1 [8] = target: T5, Cannabinoid receptor 1 (Homo sapiens, UniProt P21554); test: Agonist activity at CB1 receptor (unknown origin) expressed in rat CHEM-1 cells after 3 mins by calcium flux/FLIPR assay; format: functional, cell-based
[9] = target: Sphingosine 1-phosphate receptor Edg-5/Sphingosine 1-phosphate receptor Edg-3 (Homo sapiens) (UniProt O95136+Q99500); test: Agonist activity at S1P2/3 receptor in HEK293 cells assessed as inhibition of forskolin-induced cAMP level after 1 hr by alphascreen immunoassay; format: functional, cell-based
[10] = target: T6, 5-hydroxytryptamine receptor 2A (Homo sapiens, UniProt P28223); test: Agonist activity at 5HT2A receptor (unknown origin) expressed in CHOK1 cells after 3 mins by calcium flux/FLIPR assay; format: functional, cell-based, CHO-K1
Cannabinoid receptor 1 [11] = target: T5, Cannabinoid receptor 1; test: Antagonist activity at CB1 receptor (unknown origin) expressed in rat CHEM-1 cells after 15 mins by calcium flux/FLIPR assay in presence of CP55940; format: functional, cell-based
[12] = target: T7, Alpha-1A adrenergic receptor (Homo sapiens, UniProt P35348); test: Antagonist activity at alpha-1A adrenergic receptor (unknown origin) expressed in CHOK1 cells after 15 mins by calcium flux/FLIPR assay in presence of A-61603; format: functional, cell-based, CHO-K1
T7 sequence (P35348 whole entry): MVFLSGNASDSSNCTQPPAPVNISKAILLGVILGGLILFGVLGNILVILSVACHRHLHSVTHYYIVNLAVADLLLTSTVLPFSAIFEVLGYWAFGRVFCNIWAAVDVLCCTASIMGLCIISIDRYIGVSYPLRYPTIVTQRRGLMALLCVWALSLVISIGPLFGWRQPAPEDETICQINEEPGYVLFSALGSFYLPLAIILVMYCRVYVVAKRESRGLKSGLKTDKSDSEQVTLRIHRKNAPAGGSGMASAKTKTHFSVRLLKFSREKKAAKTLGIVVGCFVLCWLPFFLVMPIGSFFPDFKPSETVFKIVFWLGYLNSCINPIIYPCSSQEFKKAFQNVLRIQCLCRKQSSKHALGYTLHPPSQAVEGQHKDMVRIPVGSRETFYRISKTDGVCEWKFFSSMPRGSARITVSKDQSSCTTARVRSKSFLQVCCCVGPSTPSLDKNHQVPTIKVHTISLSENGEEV

[13] = target: T8, 5-hydroxytryptamine receptor 2B (Homo sapiens, UniProt P41595); test: Antagonist activity at 5HT2B receptor (unknown origin) expressed in CHOK1 cells after 15 mins by calcium flux/FLIPR assay in presence of BW723C86; format: functional, cell-based, CHO-K1
[14] = target: T9, D(4) dopamine receptor (Homo sapiens) (UniProt P21917); test: Agonist activity at human D4 receptor expressed in Chem-5 cells assessed as calcium mobilization by FLIPR assay; format: functional, cell-based
T9 sequence (whole entry): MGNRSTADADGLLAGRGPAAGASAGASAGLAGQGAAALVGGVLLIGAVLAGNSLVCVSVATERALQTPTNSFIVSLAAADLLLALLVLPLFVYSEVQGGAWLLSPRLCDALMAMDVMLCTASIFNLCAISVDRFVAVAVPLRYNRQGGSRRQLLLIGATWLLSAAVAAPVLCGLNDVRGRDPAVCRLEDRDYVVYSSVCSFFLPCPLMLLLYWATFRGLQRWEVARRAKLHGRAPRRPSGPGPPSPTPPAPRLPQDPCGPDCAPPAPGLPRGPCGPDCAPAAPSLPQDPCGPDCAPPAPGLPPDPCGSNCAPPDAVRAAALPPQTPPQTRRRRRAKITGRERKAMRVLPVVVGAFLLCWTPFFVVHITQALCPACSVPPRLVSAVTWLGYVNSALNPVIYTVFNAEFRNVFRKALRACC

[15] = target: T7, Alpha-1A adrenergic receptor; test: Agonist activity at alpha-1A adrenergic receptor (unknown origin) expressed in CHOK1 cells after 3 mins by calcium flux/FLIPR assay; format: functional, cell-based, CHO-K1
[16] = target: T6, 5-hydroxytryptamine receptor 2A; test: Antagonist activity at 5HT2A receptor (unknown origin) expressed in CHOK1 cells after 15 mins by calcium flux/FLIPR assay in presence of 5HT; format: functional, cell-based, CHO-K1
Thromboxane A2 receptor [17] = target: T3, Thromboxane A2 receptor; test: Agonist activity at thromboxane A2 receptor (unknown origin) expressed in HEK293-EBNA cells after 3 mins by calcium flux/FLIPR assay; format: functional, cell-based
[18] = target: T4, Muscarinic acetylcholine receptor M2; test: Agonist activity at muscarinic acetylcholine receptor M2 (unknown origin) expressed in CHOK1 cells after 3 mins by calcium flux/FLIPR assay; format: functional, cell-based, CHO-K1
[19] = target: T8, 5-hydroxytryptamine receptor 2B; test: Agonist activity at 5HT2B receptor (unknown origin) expressed in CHOK1 cells after 3 mins by calcium flux/FLIPR assay; format: functional, cell-based, CHO-K1

T8 sequence (P41595 whole entry): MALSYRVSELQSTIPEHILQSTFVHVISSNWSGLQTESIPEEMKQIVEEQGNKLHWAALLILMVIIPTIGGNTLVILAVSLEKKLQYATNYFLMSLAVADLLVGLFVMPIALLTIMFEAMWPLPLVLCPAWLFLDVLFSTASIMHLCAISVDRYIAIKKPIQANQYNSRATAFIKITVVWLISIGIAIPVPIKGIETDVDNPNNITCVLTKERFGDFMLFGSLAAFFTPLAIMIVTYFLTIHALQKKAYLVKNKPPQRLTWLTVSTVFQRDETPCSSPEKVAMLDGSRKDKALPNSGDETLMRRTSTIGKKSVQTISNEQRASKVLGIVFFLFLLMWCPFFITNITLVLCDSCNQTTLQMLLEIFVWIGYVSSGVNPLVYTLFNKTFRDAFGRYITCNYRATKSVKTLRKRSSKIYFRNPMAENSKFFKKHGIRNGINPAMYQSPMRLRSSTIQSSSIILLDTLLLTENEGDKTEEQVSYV
T1 sequence (P21728 whole entry): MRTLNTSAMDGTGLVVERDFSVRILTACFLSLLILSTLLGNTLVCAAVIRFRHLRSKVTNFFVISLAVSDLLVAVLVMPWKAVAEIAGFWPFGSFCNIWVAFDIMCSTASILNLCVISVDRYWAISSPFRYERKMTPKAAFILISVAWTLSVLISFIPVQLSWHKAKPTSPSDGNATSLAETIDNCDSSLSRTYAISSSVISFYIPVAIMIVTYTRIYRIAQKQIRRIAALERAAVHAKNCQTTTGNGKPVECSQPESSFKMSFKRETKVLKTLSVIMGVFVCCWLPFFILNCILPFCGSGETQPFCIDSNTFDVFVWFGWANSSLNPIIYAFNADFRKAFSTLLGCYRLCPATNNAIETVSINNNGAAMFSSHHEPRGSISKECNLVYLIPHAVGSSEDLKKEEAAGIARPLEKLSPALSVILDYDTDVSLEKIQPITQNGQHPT
T5 sequence (P21554 whole entry): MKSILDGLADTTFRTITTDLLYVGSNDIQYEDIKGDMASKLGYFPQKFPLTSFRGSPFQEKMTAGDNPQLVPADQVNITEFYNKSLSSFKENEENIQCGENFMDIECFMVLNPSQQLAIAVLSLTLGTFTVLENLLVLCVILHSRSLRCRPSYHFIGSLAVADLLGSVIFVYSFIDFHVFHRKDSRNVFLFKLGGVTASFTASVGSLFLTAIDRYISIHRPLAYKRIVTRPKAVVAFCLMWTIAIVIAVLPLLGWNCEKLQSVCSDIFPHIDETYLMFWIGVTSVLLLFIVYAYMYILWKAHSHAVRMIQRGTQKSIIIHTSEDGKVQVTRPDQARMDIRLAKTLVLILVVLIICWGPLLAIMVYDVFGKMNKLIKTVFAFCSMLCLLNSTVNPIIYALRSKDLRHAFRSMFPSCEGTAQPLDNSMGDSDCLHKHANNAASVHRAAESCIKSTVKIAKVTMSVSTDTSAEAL
T6 sequence (P28223 whole entry): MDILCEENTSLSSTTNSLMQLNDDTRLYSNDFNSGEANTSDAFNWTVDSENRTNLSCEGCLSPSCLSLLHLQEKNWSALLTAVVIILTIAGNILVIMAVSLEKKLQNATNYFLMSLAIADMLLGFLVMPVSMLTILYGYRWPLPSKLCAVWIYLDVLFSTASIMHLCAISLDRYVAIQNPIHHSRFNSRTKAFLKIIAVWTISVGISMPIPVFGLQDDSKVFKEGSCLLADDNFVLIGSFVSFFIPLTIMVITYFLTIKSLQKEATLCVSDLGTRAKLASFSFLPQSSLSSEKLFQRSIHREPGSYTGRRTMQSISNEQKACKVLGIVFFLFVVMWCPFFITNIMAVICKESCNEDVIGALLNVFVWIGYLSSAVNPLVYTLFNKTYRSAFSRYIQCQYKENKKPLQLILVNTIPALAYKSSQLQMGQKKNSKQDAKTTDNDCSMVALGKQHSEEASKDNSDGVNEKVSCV
Sequence of Beta-2 adrenergic receptor (P07550 whole entry): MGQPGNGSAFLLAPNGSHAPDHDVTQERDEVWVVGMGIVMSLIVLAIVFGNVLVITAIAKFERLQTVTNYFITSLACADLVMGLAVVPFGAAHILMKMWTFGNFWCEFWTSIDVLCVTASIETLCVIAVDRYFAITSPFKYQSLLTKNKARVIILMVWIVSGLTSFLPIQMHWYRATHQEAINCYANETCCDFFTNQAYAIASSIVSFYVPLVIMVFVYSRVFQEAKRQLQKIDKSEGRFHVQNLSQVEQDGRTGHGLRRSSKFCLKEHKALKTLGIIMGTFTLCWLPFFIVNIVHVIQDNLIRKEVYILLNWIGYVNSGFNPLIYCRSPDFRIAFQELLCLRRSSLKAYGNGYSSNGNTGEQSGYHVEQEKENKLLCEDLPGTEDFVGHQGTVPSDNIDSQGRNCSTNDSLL

In the case of `CCCCCCCCCCCCCCCC(=O)N[C@H](C(=O)N[C@H](C(=O)N[C@@H](CC(C)C)C(=O)N1CCC[C@H]1C(=O)N[C@@H](CC(C)C)C(=O)N[C@@H](Cc1c[nH]c2ccccc12)C(=O)N[C@@H](C)C(=O)N[C@H](C(=O)N[C@@H](Cc1ccc(O)cc1)C(=O)N[C@H](C(=O)N[C@@H](Cc1ccc(O)cc1)C(=O)N[C@@H](CCCNC(=N)N)C(N)=O)[C@@H](C)O)[C@@H](C)O)[C@@H](C)O)C(C)C` (Palmitoyl-VTLPLWATYTYR-NH2), the IC50 (D(1A) dopamine receptor [1]) is reported as > 30 µM, the IC50 [2] is reported as > 30 µM and the IC50 (Thromboxane A2 receptor [3]) is reported as > 30 µM. The EC50 [4] was > 30 µM, the IC50 [5] was > 30 µM and the EC50 (D(1A) dopamine receptor [6]) was > 30 µM. For the same molecule, the EC50 [7] was > 30 µM, the EC50 (Cannabinoid receptor 1 [8]) was > 30 µM and the Activity [9] was “inactive”. For the same molecule, the EC50 [10] was > 30 µM, the IC50 (Cannabinoid receptor 1 [11]) was > 30 µM and the IC50 [12] was > 30 µM. The IC50 [13] was > 30 µM, the Activity [14] was “inactive” and the EC50 [15] was > 30 µM. The IC50 [16] was > 30 µM, the EC50 (Thromboxane A2 receptor [17]) was > 30 µM and the EC50 [18] was > 30 µM. The EC50 [19] was > 30 µM.
